This is an account of results in PubChem BioAssay (NCI).

Among the test systems are SNB-78 CNS; HT29 colon; SK-MEL-5 melanoma; SK-MEL-28 melanoma; TK-10 renal; LOX IMVI melanoma; HL-60(TB) leukemia; SN12C renal; HCT-15 colon; HOP-18 NSCLC.
Experiment in all cases: growth of human tumour cells (NCI), 48 h

Several values for one entry are separate records, joined by “and”; a condition that tells them apart may be missing. Equal entries are not always repeated.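 Compound exposure: 48 hours, 5 concentrations, 96-well plates. GI50: concentration for 50% inhibition of growth. At the TGI there is no net growth.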 A value given as a limit tells only on which side of the number the result lay.

On to `CC1=C(C(=O)Nc2cc(=O)n(C)c(=O)n2C)C(c2ccco2)C(C(=O)Nc2cc(=O)n(C)c(=O)n2C)=C(C)N1`, for which the TGI with SNB-78 CNS, with HT29 colon, in the assay with SK-MEL-5 melanoma, with SK-MEL-28 melanoma, in the assay with TK-10 renal and in the assay with LOX IMVI melanoma was more than 100 µM in each case. In addition, the TGI with HL-60(TB) leukemia and in the assay with SN12C renal was more than 100 µM throughout.
As for `CC1(C)O[C@H]2[C@H](O)C[C@](O)(CO)C[C@H]2O1`, the TGI in the assay on SNB-78 CNS, with HT29 colon, with SK-MEL-5 melanoma, with SK-MEL-28 melanoma, in the assay with TK-10 renal and in the assay on HCT-15 colon was more than 100 µM throughout. Also, in the assay with SN12C renal, the TGI is more than 100 µM.
As to `CCc1ccccc1NC(=O)C1=C(C)NC(C)=C(C(=O)Nc2ccccc2CC)C1c1ccccc1Cl`, the TGI in the assay with SNB-78 CNS, in the assay with HT29 colon, in the assay on SK-MEL-5 melanoma, with SK-MEL-28 melanoma, with TK-10 renal and with LOX IMVI melanoma was more than 100 µM in each case. Also, the TGI in the assay on HL-60(TB) leukemia and with SN12C renal was more than 100 µM each time.
Regarding `O=C(O)C1=C(O)C(C(=O)O)C23CCCCCCCCCCC12C(C(=O)O)C(O)=C3C(=O)O` (stereo unspecified), the TGI with HOP-18 NSCLC, with HT29 colon, in the assay on SK-MEL-5 melanoma, in the assay on SK-MEL-28 melanoma, in the assay with TK-10 renal and with HCT-15 colon was more than 100 µM in each case. Moreover, the TGI in the assay with HL-60(TB) leukemia and with SN12C renal was more than 100 µM in each case.
For the compound `O=C(O)CCCSC(=O)Nc1ccc(N=Nc2ccccc2)cc1`, the TGI in the assay on SNB-78 CNS, with HT29 colon, in the assay with SK-MEL-28 melanoma, in the assay with TK-10 renal, in the assay on LOX IMVI melanoma and in the assay on HCT-15 colon was more than 100 µM throughout. The TGI in the assay with SN12C renal is more than 100 µM.
With `CN(Cc1ccccc1)C(=NC#N)N(Cc1ccccc1)Cc1ccccc1`, the TGI in the assay on SNB-78 CNS is 77.1 µM; with HT29 colon it was 36.3 µM; in the assay with SK-MEL-5 melanoma it was 33.3 µM; with SK-MEL-28 melanoma, 83.1 µM; in the assay on TK-10 renal, more than 100 µM; with LOX IMVI melanoma, 35 µM. Besides, the TGI was 71 µM with HCT-15 colon, more than 100 µM in the assay on HL-60(TB) leukemia and more than 92.9 µM in the assay on SN12C renal.
As for `CCCCCCCCCCCc1nnc(N)o1`, the TGI with SNB-78 CNS, in the assay with HT29 colon, in the assay on SK-MEL-28 melanoma, in the assay on TK-10 renal, with LOX IMVI melanoma and in the assay on HCT-15 colon was more than 100 µM in each case. Further, the TGI in the assay with HL-60(TB) leukemia and in the assay on SN12C renal was more than 100 µM each time.
For the compound `N.N.N.N.[Co+3].[N-]=[N+]=[N-].[N-]=[N+]=[N-].[N-]=[N+]=[N-]`, the GI50 in the assay on SNB-78 CNS is more than 100 µM; in the assay on HT29 colon, more than 100 µM; with SK-MEL-5 melanoma, more than 100 µM; in the assay on SK-MEL-28 melanoma, 47.1 µM; in the assay with TK-10 renal it was more than 100 µM; with LOX IMVI melanoma, more than 100 µM. Further, the GI50 with HCT-15 colon is more than 100 µM; in the assay with HL-60(TB) leukemia it was 61.5 µM; in the assay with SN12C renal it was more than 100 µM. The TGI with SNB-78 CNS, with HT29 colon, with SK-MEL-5 melanoma, in the assay with SK-MEL-28 melanoma, with TK-10 renal and with LOX IMVI melanoma was more than 100 µM each time. Besides, the TGI with HCT-15 colon, in the assay with HL-60(TB) leukemia and in the assay on SN12C renal was more than 100 µM in each case.
As for `O=c1[nH]nnc2c1ncn2C1OC(CO)C(O)C1O` (stereo unspecified), the GI50 was 13 µM in the assay with HT29 colon; 32.9 µM in the assay on SK-MEL-5 melanoma; 68.3 µM in the assay with SK-MEL-28 melanoma; 2.98 µM in the assay with TK-10 renal; 2.23 µM in the assay with LOX IMVI melanoma; 8.04 µM with HCT-15 colon. The GI50 was 1.39 µM in the assay with HL-60(TB) leukemia and 38.3 µM in the assay with SN12C renal. Also, the TGI with HT29 colon, in the assay with SK-MEL-5 melanoma, in the assay with SK-MEL-28 melanoma, with TK-10 renal, in the assay with LOX IMVI melanoma and with HCT-15 colon was more than 100 µM in each case. The TGI in the assay with HL-60(TB) leukemia is 83.3 µM; with SN12C renal, more than 100 µM.
Turning to `COC(=O)NC(=O)c1cn(C2OC(CO)C(O)C2O)c(=O)[nH]c1=O` (stereo unspecified), the TGI in the assay with SNB-78 CNS, with HT29 colon, in the assay on SK-MEL-28 melanoma, with TK-10 renal, with LOX IMVI melanoma and in the assay with HCT-15 colon was more than 100 µM each time. The TGI in the assay on HL-60(TB) leukemia and with SN12C renal was more than 100 µM in each case.
For `CC(=O)NC1C(OC[C@@H](CC(=O)N[C@@H](CC(=O)O)CC(=O)N[C@H](CC(=O)N[C@@H](CCCN)CC(=O)N[C@@H](CCCN)CC(=O)N[C@H](CC(N)=O)C(C)C)C(C)C)NC(=O)C[C@@H](N)C(C)C)OC(CO)C(O)C1O` (stereo partly specified), the GI50 with HT29 colon, with SK-MEL-5 melanoma, in the assay on SK-MEL-28 melanoma, in the assay with TK-10 renal, in the assay on LOX IMVI melanoma and with HCT-15 colon was more than 100 µM in each case. Also, the GI50 in the assay on HL-60(TB) leukemia and with SN12C renal was more than 100 µM each time. Also, the TGI in the assay with HT29 colon, in the assay with SK-MEL-5 melanoma, in the assay on SK-MEL-28 melanoma, in the assay on TK-10 renal, in the assay on LOX IMVI melanoma and with HCT-15 colon was more than 100 µM each time. Further, the TGI in the assay on HL-60(TB) leukemia and in the assay with SN12C renal was more than 100 µM each time.
Turning to `C=C(C)C(O)CCC1(C)C=Cc2c(c(C)cc3c2[nH]c2ccccc23)O1` (stereo unspecified), the TGI in the assay on SNB-78 CNS is 25 µM; with HT29 colon, 8.53 µM and 3.26 µM; in the assay with SK-MEL-5 melanoma, 25 µM and 21.7 µM; in the assay on SK-MEL-28 melanoma, 25 µM; in the assay on TK-10 renal, > 25 µM and 27 µM; in the assay with LOX IMVI melanoma, 8.4 µM and 12.2 µM. For the same compound, the TGI in the assay on HCT-15 colon was 8.23 µM and 4.71 µM; in the assay on HL-60(TB) leukemia, 25 µM and 19.9 µM; in the assay on SN12C renal, 25 µM and 21.5 µM. Further, the GI50 was 1.71 µM in the assay with HT29 colon; 10.1 µM with SK-MEL-5 melanoma; 14 µM in the assay with TK-10 renal; 3.12 µM in the assay on LOX IMVI melanoma; 1.93 µM in the assay on HCT-15 colon; 4.24 µM in the assay with HL-60(TB) leukemia. The GI50 in the assay on SN12C renal is 9.57 µM.
As for `ClCc1cccc2c(CCl)cccc12`, the GI50 in the assay on HT29 colon is 2.88 µM; with SK-MEL-5 melanoma, 8.23 µM; in the assay with SK-MEL-28 melanoma, 10.9 µM; with TK-10 renal, 2.28 µM; in the assay with LOX IMVI melanoma, 1.39 µM; in the assay with HCT-15 colon, 5.92 µM. The GI50 is 4.49 µM with HL-60(TB) leukemia and 3.47 µM in the assay on SN12C renal. Moreover, the TGI amounted to 11.2 µM with HT29 colon; 21.4 µM in the assay on SK-MEL-5 melanoma; 24.4 µM in the assay on SK-MEL-28 melanoma; 7.46 µM with TK-10 renal; 4.3 µM with LOX IMVI melanoma; 30.1 µM in the assay with HCT-15 colon. For the same compound, the TGI in the assay with HL-60(TB) leukemia was more than 100 µM; with SN12C renal it was 32.2 µM.
On to `O=C(Nc1ccc([As](=O)(O)O)cc1)Nc1cccc(Cl)c1Cl`, for which the TGI in the assay on HT29 colon, in the assay with SK-MEL-5 melanoma, in the assay with SK-MEL-28 melanoma, in the assay on TK-10 renal, in the assay with LOX IMVI melanoma and in the assay with HCT-15 colon was more than 100 µM each time. In addition, the TGI in the assay with HL-60(TB) leukemia and with SN12C renal was more than 100 µM each time.
Take `O=C(Oc1cccc(F)c1OC(=O)c1cccc(O)c1)c1cccc(O)c1`: the GI50 in the assay on HT29 colon was 41.8 µM; in the assay with SK-MEL-5 melanoma it was 6.9 µM; in the assay with SK-MEL-28 melanoma it was 80.1 µM; with TK-10 renal it was 98.6 µM; in the assay on LOX IMVI melanoma it was 13 µM; in the assay with HCT-15 colon it was 15.3 µM. The GI50 was 4.28 µM with HL-60(TB) leukemia and 56.6 µM in the assay on SN12C renal. The TGI in the assay with HT29 colon, with SK-MEL-5 melanoma, in the assay with SK-MEL-28 melanoma, with TK-10 renal, in the assay on LOX IMVI melanoma and in the assay on HCT-15 colon was more than 100 µM throughout. Besides, the TGI with HL-60(TB) leukemia is 72.3 µM; in the assay with SN12C renal, more than 100 µM.
For `CCOC(=O)Nc1ccc2c(c1)/C(=N\NC(N)=S)c1ccccc1-2`, the GI50 was 3.23 µM in the assay with HT29 colon; 2.44 µM in the assay with SK-MEL-5 melanoma; 4.58 µM with SK-MEL-28 melanoma; 15.2 µM in the assay with TK-10 renal; 3.52 µM in the assay with LOX IMVI melanoma; 3.25 µM with HCT-15 colon. In addition, the GI50 in the assay on HL-60(TB) leukemia was 4.24 µM; in the assay with SN12C renal it was 5.94 µM. Further, the TGI in the assay on HT29 colon is 13 µM; in the assay on SK-MEL-5 melanoma it was 7.59 µM; with SK-MEL-28 melanoma, 17.7 µM; in the assay with TK-10 renal, more than 68.5 µM; in the assay with LOX IMVI melanoma, 20.2 µM; with HCT-15 colon it was 18.4 µM. The TGI is 16.1 µM with HL-60(TB) leukemia and 65.7 µM in the assay on SN12C renal.
For `COc1ccc(C(=S)N2CCN(c3cccc(C)c3)CC2)cc1OC`, the GI50 in the assay on HT29 colon is 3.3 µM; with SK-MEL-5 melanoma it was 4.55 µM; in the assay with SK-MEL-28 melanoma, 5.42 µM; in the assay on TK-10 renal it was 7.99 µM; with LOX IMVI melanoma, 5.46 µM; in the assay with HCT-15 colon it was 3.77 µM. Besides, the GI50 was 1.83 µM in the assay with HL-60(TB) leukemia and 6.85 µM in the assay on SN12C renal. The TGI in the assay on HT29 colon, in the assay on SK-MEL-5 melanoma, with SK-MEL-28 melanoma, in the assay on TK-10 renal, in the assay on LOX IMVI melanoma and with HCT-15 colon was more than 100 µM throughout. Moreover, the TGI in the assay on HL-60(TB) leukemia and in the assay with SN12C renal was more than 100 µM in each case.
